Where a name gives a salt, the structure may show the parent alone. Read-outs that look alike come from different tables or passages of the source.
Assays:
[1] = tested on: oligodendrocyte precursor cells (OPCs); conditions: for number of red "myelin rings" generated by oligodendrocytes (MBP positive staining) compared to control: compound added at 4 div for two days, images at 6 div; for generation of "myelin rings" on the micropillar platform: OPCs plated on micropillar arrays
Text: Using Axiovision software by Zeiss, we can automate the detection and quantification of the number of myelin rings without any of the confounding issues associated with the nanofibers (i.e. length of internodes, interfering cell processes, cell bodies, etc.). Essentially, oligodendrocyte precursor cells (OPCs) will be visualized as green rings whereas oligodendrocytes are indicated as red rings (FIG. 4C).
(A-C) Immunostaining for myelination by oligodendrocytes (red, MBP positive staining) surrounding micropillars. Oligodendrocytes were cultured on micropillars for total of 6 days in vitro (div) and received compounds known to enhance differentiation at 4 div for two days. […] Images were acquired at 6 div. Scale bar, 50 μm.

oligodendroglia = conditions: polystyrene nanofibers, no axons
Experimental: The exquisite flexibility in the design of our nanofibers guarantees constant uniformity and density of fibers in the experimental design and any effects from compounds tested could be attributed solely to direct influences on oligodendroglia (FIG. 2), without confounding effects from neurons.
Nanofibers are patterned and deposited into a 24-well format and placed under an automated fluorescence microscope with incubation chamber. Upon addition of oligodendroglia and small molecules, cells cultured with the nanofibers can be analyzed for effects on proliferation, survival, differentiation, and myelination in real time. […]
To initiate a screen, a candidate list of known molecules and chemical inhibitors thought to play a role in promoting oligodendrocyte differentiation and myelination was compiled, and applied various FDA approved compounds in the treatment of psychiatric disorders. […] Additionally, the ability to quantify a functional readout for differentiation and myelination by oligodendrocytes, provides the unique opportunity to uncouple the axonal contribution on myelination.
Oligodendrocyte differentiation and myelination were examined on our nanofiber platform (a). […] Cultures were immunostained after 7 days in vitro and analyzed for myelin basic protein (red).

[2] = tested on: purified oligodendroglia cocultured with purified neurons
Text: In the cocultures, myelin internodes can be routinely identified by the “tube-like” structures (immunostained for myelin-specific proteins) formed by the oligodendrocytes. […] Overall, the coculture system recapitulates the timing of oligodendrocyte development and myelination in vivo and represents a powerful tool to validate compounds and factors that may both promote and inhibit oligodendroglial development. […] Additionally, the ability to quantify a functional readout for differentiation and myelination by oligodendrocytes, provides the unique opportunity to uncouple the axonal contribution on myelination.
Cultures were immunostained after 7 days in vitro and analyzed for myelin basic protein (red).

SMILES | number of red "myelin rings" generated by oligodendrocytes (MBP positive staining) compared to control ([1]; 1 μM) | generation of "myelin rings" on the micropillar platform [1] | differentiation of oligodendrocytes and myelination of the nanofibers (oligodendroglia) | differentiation and myelination of neuronal axons ([2]; purified oligodendroglia with purified neurons) | oligodendrocyte differentiation and myelination (myelin basic protein immunostaining) ([2]; quetiapine fumarate 100 nM, 7 days in vitro, Oligodendrocyte-DRG cocultures) | number of red "myelin rings" generated by oligodendrocytes (MBP positive staining) compared to control ([1]; 30 ng/mL)
OCCOCCN1CCN(C2=Nc3ccccc3Sc3ccccc32)CC1 [quetiapine fumarate] | increases | significantly enhanced | greatly enhanced | significantly enhances | significantly accelerated | –
N[C@@H](Cc1cc(I)c(Oc2ccc(O)c(I)c2)c(I)c1)C(=O)O [thyroid hormone] | – | significantly enhanced | – | – | – | increases

— patent publication US10180423B2, “Micropillar arrays for assaying myelination” (The Regents of the University of California, priority 2012, dated 2019)
